Measurements as given in patent publication US12741974B2, “Compounds constituting C20-modified salinomycin derivatives, a method for obtaining the same, a composition containing the same, a use of said compounds and a method for obtaining an intermediate product” (FILECLO SP. Z O.O., priority 2020, dated 2021).

Key:
Format in all cases: cell-based
[1] = system: B16-F0 (murine melanoma); assay: In vitro cytotoxicity test, SRB assay, 72 h incubation with compound; conditions: for IC50: B16-F0 murine melanoma, SRB, 72 h; for SI B16-F0: selectivity coefficient, BALB/3T3 versus B16-F0
Procedure: (§1) In vitro cytotoxicity tests were performed according to the procedure described below. […] The solvent for further dilutions was a culture medium.
(§2) The experiments were repeated at least 3 times.

[2] = system: Hs294T (human melanoma); assay: as above; conditions: for IC50: Hs294T human melanoma, SRB, 72 h; for SI Hs294T: selectivity coefficient, BALB/3T3 versus Hs294T
Procedure: as §1, §2

[3] = system: LoVo (drug-sensitive human colon cancer); assay: as above; conditions: for IC50: LoVo drug-sensitive human colon cancer, SRB, 72 h; for SI LoVo: selectivity coefficient, BALB/3T3 versus LoVo
Procedure: as §1, §2

[4] = system: LoVo/DX (drug-resistant human colon cancer); assay: as above; conditions: for IC50: LoVo/DX drug-resistant human colon cancer, SRB, 72 h; for RI: drug resistance coefficient, LoVo/DX versus LoVo, 4320 min; for SI LoVo/DX: selectivity coefficient, BALB/3T3 versus LoVo/DX
Procedure: as §1, §2

[5] = system: MCF-7 (human breast cancer); assay: as above; conditions: for IC50: MCF-7 human breast cancer, SRB, 72 h; for SI MCF-7: selectivity coefficient, BALB/3T3 versus MCF-7
Procedure: as §1, §2

[6] = system: MV-4-11 (human biphenotypic leukaemia); assay: In vitro cytotoxicity test, MTT assay, 72 h incubation with compound; conditions: for IC50: MV-4-11 human biphenotypic leukaemia, MTT, 72 h; for SI MV-4-11: selectivity coefficient, BALB/3T3 versus MV-4-11
Procedure: as §1, §2
After 4 hours of incubation at 37° C., 80 μL of lysis buffer was added to each well.

[7] = In vitro cytotoxicity test on normal cells, SRB assay, 72 h incubation with compound; conditions: mouse, balb/3t3 cells, normal murine fibroblasts, read-out: IC50 BALB/3T3
Procedure: Normal murine BALB/3T3 fibroblasts were also used in the tests for determining the selectivity coefficients of the compounds used in the assays.
as §1, §2

## CC[C@@H](C(=O)[C@@H](C)[C@@H](O)[C@H](C)[C@@H]1O[C@@H]([C@@H](CC)C(=O)O)CC[C@@H]1C)[C@H]1O[C@]2(C=C[C@@H](NC(=O)COC)[C@]3(CC[C@@](C)([C@H]4CC[C@](O)(CC)[C@H](C)O4)O3)O2)[C@H](C)C[C@@H]1C [(13), C20-dehydroxy-C20-aminosalinomycin N-methoxyacetamide]
[1]; Mus musculus, B16F0
  IC50: 530 nM
[1]
  SI B16-F0: 26.4
[2]; Hs 294T
  IC50: 60 nM
[2]
  SI Hs294T: 233.5
[3]
  IC50: 670 nM
  SI LoVo: 20.9
[4]
  IC50: 2330 nM
  RI: 3.5
  SI LoVo/DX: 6.0
[5]; MCF7
  IC50: 1310 nM
[5]
  SI MCF-7: 10.7
[6]; MV4-11
  IC50: 270 nM
[6]
  SI MV-4-11: 51.9
[7]
  CC50 at 72 h: 14000 nM

## CC[C@@H](C(=O)[C@@H](C)[C@@H](O)[C@H](C)[C@@H]1O[C@@H]([C@@H](CC)C(=O)O)CC[C@@H]1C)[C@H]1O[C@]2(C=C[C@@H](NC(=O)c3ccc(CCl)cc3)[C@]3(CC[C@@](C)([C@H]4CC[C@](O)(CC)[C@H](C)O4)O3)O2)[C@H](C)C[C@@H]1C [(16), C20-dehydroxy-C20-aminosalinomycin N-(4-chloromethyl)benzamide]
[1]; Mus musculus, B16F0
  IC50: 480 nM
[1]
  SI B16-F0: 5.2
[2]; Hs 294T
  IC50: 30 nM
[2]
  SI Hs294T: 83.3
[3]
  IC50: 290 nM
  SI LoVo: 8.6
[4]
  IC50: 630 nM
  RI: 2.2
  SI LoVo/DX: 4.0
[5]; MCF7
  IC50: 580 nM
[5]
  SI MCF-7: 4.3
[6]; MV4-11
  IC50: 30 nM
[6]
  SI MV-4-11: 83.3
[7]
  CC50 at 72 h: 2500 nM

## CCOC(=O)N[C@@H]1C=C[C@]2(O[C@H]([C@@H](CC)C(=O)[C@@H](C)[C@@H](O)[C@H](C)[C@@H]3O[C@@H]([C@@H](CC)C(=O)O)CC[C@@H]3C)[C@@H](C)C[C@H]2C)O[C@@]12CC[C@@](C)([C@H]1CC[C@](O)(CC)[C@H](C)O1)O2 [(19), C20-dehydroxy-C20-aminosalinomycin N-ethylcarbamate]
[1]; Mus musculus, B16F0
  IC50: 30 nM
[1]
  SI B16-F0: 32.3
[2]; Hs 294T
  IC50: 10 nM
[2]
  SI Hs294T: 97.0
[3]
  IC50: 160 nM
  SI LoVo: 6.1
[4]
  IC50: 43100 nM
  RI: 269.4
  SI LoVo/DX: 0.02
[5]; MCF7
  IC50: 540 nM
[5]
  SI MCF-7: 1.8
[6]; MV4-11
  IC50: 40 nM
[6]
  SI MV-4-11: 24.3
[7]
  CC50 at 72 h: 970 nM

## N.N.[Cl][Pt][Cl] [cisplatin, reference compound]
[1]
  IC50: 3840 nM
[2]
  IC50: 4010 nM
[3]
  IC50: 6970 nM
[4]
  IC50: 8000 nM
  RI: 1.1
[5]
  IC50: 7170 nM
[6]
  IC50: 3400 nM

## CC[C@@H](C(=O)[C@@H](C)[C@@H](O)[C@H](C)[C@@H]1O[C@@H]([C@@H](CC)C(=O)O)CC[C@@H]1C)[C@H]1O[C@]2(C=C[C@@H](NC(=O)CCl)[C@]3(CC[C@@](C)([C@H]4CC[C@](O)(CC)[C@H](C)O4)O3)O2)[C@H](C)C[C@@H]1C [(11), C20-dehydroxy-C20-aminosalinomycin N-chloroacetamide]
[1]; Mus musculus, B16F0
  IC50: 400 nM
[1]
  SI B16-F0: 6.5
[2]; Hs 294T
  IC50: 60 nM
[2]
  SI Hs294T: 43.2
[3]
  IC50: 930 nM
  SI LoVo: 2.8
[4]
  IC50: 620 nM
  RI: 0.7
  SI LoVo/DX: 4.2
[5]; MCF7
  IC50: 810 nM
[5]
  SI MCF-7: 3.2
[6]; MV4-11
  IC50: 280 nM
[6]
  SI MV-4-11: 9.2
[7]
  CC50 at 72 h: 2590 nM

## CCCCNC(=O)N[C@@H]1C=C[C@]2(O[C@H]([C@@H](CC)C(=O)[C@@H](C)[C@@H](O)[C@H](C)[C@@H]3O[C@@H]([C@@H](CC)C(=O)[O-])CC[C@@H]3C)[C@@H](C)C[C@H]2C)O[C@@]12CC[C@@](C)([C@H]1CC[C@](O)(CC)[C@H](C)O1)O2.[Na+] [(24), butylurea of C20-dehydroxy-C20-aminosalinomycin]
[1]; Mus musculus, B16F0
  IC50: 50 nM
[1]
  SI B16-F0: 16.0
[2]; Hs 294T
  IC50: 40 nM
[2]
  SI Hs294T: 20.0
[3]
  IC50: 70 nM
  SI LoVo: 11.4
[4]
  IC50: 110 nM
  RI: 1.6
  SI LoVo/DX: 7.3
[5]; MCF7
  IC50: 400 nM
[5]
  SI MCF-7: 2.0
[6]; MV4-11
  IC50: 1 nM
[6]
  SI MV-4-11: 800.0
[7]
  CC50 at 72 h: 800 nM

## CCCNC(=O)N[C@@H]1C=C[C@]2(O[C@H]([C@@H](CC)C(=O)[C@@H](C)[C@@H](O)[C@H](C)[C@@H]3O[C@@H]([C@@H](CC)C(=O)[O-])CC[C@@H]3C)[C@@H](C)C[C@H]2C)O[C@@]12CC[C@@](C)([C@H]1CC[C@](O)(CC)[C@H](C)O1)O2.[Na+] [(23), propylurea of C20-dehydroxy-C20-aminosalinomycin]
[1]; Mus musculus, B16F0
  IC50: 70 nM
[1]
  SI B16-F0: 22.0
[2]; Hs 294T
  IC50: 10 nM
[2]
  SI Hs294T: 154.0
[3]
  IC50: 60 nM
  SI LoVo: 25.7
[4]
  IC50: 150 nM
  RI: 2.5
  SI LoVo/DX: 10.3
[5]; MCF7
  IC50: 370 nM
[5]
  SI MCF-7: 4.2
[6]; MV4-11
  IC50: 1.1 nM
[6]
  SI MV-4-11: 1400.0
[7]
  CC50 at 72 h: 1540 nM

## CC[C@@H](C(=O)[C@@H](C)[C@@H](O)[C@H](C)[C@@H]1O[C@@H]([C@@H](CC)C(=O)O)CC[C@@H]1C)[C@H]1O[C@]2(C=C[C@@H](N)[C@]3(CC[C@@](C)([C@H]4CC[C@](O)(CC)[C@H](C)O4)O3)O2)[C@H](C)C[C@@H]1C [(3), C20-aminosalinomycin, reference compound]
[1]; Mus musculus, B16F0
  IC50: 9440 nM
[1]
  SI B16-F0: 7.0
[2]; Hs 294T
  IC50: 9730 nM
[2]
  SI Hs294T: 6.8
[3]
  IC50: 33100 nM
  SI LoVo: 2.0
[4]
  IC50: 20500 nM
  RI: 0.6
  SI LoVo/DX: 3.2
[5]; MCF7
  IC50: 34900 nM
[5]
  SI MCF-7: 1.9
[6]; MV4-11
  IC50: 5920 nM
[6]
  SI MV-4-11: 11.2
[7]
  CC50 at 72 h: 66400 nM

## CC[C@@H](C(=O)[C@@H](C)[C@@H](O)[C@H](C)[C@@H]1O[C@@H]([C@@H](CC)C(=O)O)CC[C@@H]1C)[C@H]1O[C@]2(C=C[C@@H](NC(=O)OC)[C@]3(CC[C@@](C)([C@H]4CC[C@](O)(CC)[C@H](C)O4)O3)O2)[C@H](C)C[C@@H]1C [(18), C20-dehydroxy-C20-aminosalinomycin N-methylcarbamate]
[1]; Mus musculus, B16F0
  IC50: 50 nM
[1]
  SI B16-F0: 35.2
[2]; Hs 294T
  IC50: 20 nM
[2]
  SI Hs294T: 88.0
[3]
  IC50: 480 nM
  SI LoVo: 3.7
[4]
  IC50: 160 nM
  RI: 0.3
  SI LoVo/DX: 11.0
[5]; MCF7
  IC50: 570 nM
[5]
  SI MCF-7: 3.1
[6]; MV4-11
  IC50: 70 nM
[6]
  SI MV-4-11: 25.1
[7]
  CC50 at 72 h: 1760 nM

## CC[C@@H](C(=O)[C@@H](C)[C@@H](O)[C@H](C)[C@@H]1O[C@@H]([C@@H](CC)C(=O)O)CC[C@@H]1C)[C@H]1O[C@]2(C=C[C@@H](NC(=O)CCCCl)[C@]3(CC[C@@](C)([C@H]4CC[C@](O)(CC)[C@H](C)O4)O3)O2)[C@H](C)C[C@@H]1C [(12), C20-dehydroxy-C20-aminosalinomycin N-4-chlorobutyramide]
[1]; Mus musculus, B16F0
  IC50: 560 nM
[1]
  SI B16-F0: 30.5
[2]; Hs 294T
  IC50: 70 nM
[2]
  SI Hs294T: 243.9
[3]
  IC50: 630 nM
  SI LoVo: 27.1
[4]
  IC50: 1550 nM
  RI: 2.5
  SI LoVo/DX: 11.0
[5]; MCF7
  IC50: 900 nM
[5]
  SI MCF-7: 19.0
[6]; MV4-11
  IC50: 200 nM
[6]
  SI MV-4-11: 85.4
[7]
  CC50 at 72 h: 17100 nM
